Series [1] deals with T1, human solubilized and purified P2X4-E307T receptor mutant reconstituted into nanodiscs (Homo sapiens, UniProt Q99571, E307T/N184R/N75R).
T1 construct: The full-length human P2X4 receptor gene was subcloned into the pFastBac1 vector; Rho1D4 (fused by GSSG linker) (C); GSSG linker + human rhinovirus 3C protease site + 10x-His (C); made in house; host or cells: Sf9 insect cells (baculovirus)
Put plainly: Homologous competition binding vs [35S]ATPγS, purified P2X4-E307T receptor in nanodiscs. The note with it: 0.2 nM [35S]ATPγS; P2X4-E307T construct in nanodiscs. The protocol:
(§1) Radioligand binding studies were performed according to a published procedure. […] After an incubation of 1 h at room temperature, the incubation was terminated by rapid vacuum filtration through GF/B glass fiber filters using a Brandel 48-well harvester (Brandel). The filters were rinsed three times with ice-cold Tris-HCl buffer (50 mM, pH 7.4, 3-4 mL each) to separate unbound from bound radioligand. After punching out the filters and transferring them into scintillation vials, scintillation cocktail (2.5 mL, Ultima Gold®) was added. The samples were measured after 6 h of preincubation using a liquid scintillation counter for 1 min each. All data from calcium influx assays and radioligand binding studies were analyzed using Microsoft Excel. […] KD and Bmax values from radioligand binding assays were calculated by using the “one site-homologous” equation, implemented in GraphPad Prism version 8.0. The level of significance was calculated by a one-way ANOVA with Dunnett's post hoc test, in case there was a control group, and multiple comparison was required. […] The significance levels were defined as follows: *P < 0.05, **P < 0.01, ***P < 0.001, ****P < 0.0001.

For a further series, the target named is T2, human wt P2X4 receptor (Homo sapiens, UniProt Q99571).
T2 construct: expressed in transfected cells
T2 sequence (Q99571 1-388): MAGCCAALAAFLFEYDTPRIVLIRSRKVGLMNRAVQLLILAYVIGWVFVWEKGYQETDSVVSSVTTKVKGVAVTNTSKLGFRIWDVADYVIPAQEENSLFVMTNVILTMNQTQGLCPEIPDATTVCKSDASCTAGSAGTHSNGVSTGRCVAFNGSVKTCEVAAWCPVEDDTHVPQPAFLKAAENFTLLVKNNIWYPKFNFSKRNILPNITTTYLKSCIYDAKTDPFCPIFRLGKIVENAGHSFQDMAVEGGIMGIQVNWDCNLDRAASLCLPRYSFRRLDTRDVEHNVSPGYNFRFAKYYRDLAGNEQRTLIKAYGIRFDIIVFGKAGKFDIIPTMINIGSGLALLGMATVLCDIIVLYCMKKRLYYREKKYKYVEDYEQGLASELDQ
The series can be described thus: Homologous competition binding vs [35S]ATPγS, 1321N1 astrocytoma cell membranes. Particulars: 0.2 nM [35S]ATPγS, 1321N1 membranes. The protocol: as §1

Series [2] concerns human P2X4 receptor. Also on record: method as in not given. The note with it: assay and ref not given; cited from earlier work.
On the set-up of series [3]: method as in not given. The note with it: ref not given; cited from earlier work.
Series [4] addresses human P2X4 receptor. Further details: method as in https://doi.org/10.1124/mol.114.096222. The note with it: patch clamp, HEK293; ref https://doi.org/10.1124/mol.114.096222; read-out: Potency (IC50 value) at the human P2X4 receptor; cited from earlier work.
On the set-up of series [5]: method as in not given. The note with it: rebuttal comparison table; ref not given; cited from earlier work.
The target in series [6] is human P2X4 receptor. Also on record: method as in ref 10.1016/j.heliyon.2023.e21265. Particulars: SPR competition assay; ref 10.1016/j.heliyon.2023.e21265; read-out: Potency (IC50 value) at the human P2X4 receptor; cited from earlier work.
The subject of the next series is rat P2X4 receptors. Further details: method as in not given. The note with it: ref not given; cited from earlier work.
For a further series, the system named is mouse P2X4 receptors. Also on record: method as in not given. Particulars: ref not given; cited from earlier work.

Read-outs that look alike come from different tables or passages of the source.

T1 sequence (Q99571 whole entry N75R/N184R/E307T, the tested form may be a part): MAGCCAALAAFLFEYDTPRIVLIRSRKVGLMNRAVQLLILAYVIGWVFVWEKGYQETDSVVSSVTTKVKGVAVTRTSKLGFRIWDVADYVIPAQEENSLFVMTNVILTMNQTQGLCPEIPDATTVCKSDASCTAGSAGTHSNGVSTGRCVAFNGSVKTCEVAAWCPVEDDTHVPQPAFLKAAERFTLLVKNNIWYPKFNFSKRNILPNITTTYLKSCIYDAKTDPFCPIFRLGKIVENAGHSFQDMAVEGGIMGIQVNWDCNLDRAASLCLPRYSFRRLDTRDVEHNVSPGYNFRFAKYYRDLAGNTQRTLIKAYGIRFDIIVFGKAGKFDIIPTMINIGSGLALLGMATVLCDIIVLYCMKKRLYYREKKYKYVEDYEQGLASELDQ

As for `Nc1ncnc2c1ncn2[C@@H]1O[C@H](CO[P@](=O)(O)O[P@](=O)(O)O[P@@](=O)(O)S)[C@@H](O)[C@H]1O` [ATPγS], the “Dissociation constant (KD value)” value in series [1] came to 0.00601 ± 0.00081 µM. Moreover, on human wt P2X4 receptor, the Kd was 0.0141 ± 0.0027 µM.
Regarding `NS(=O)(=O)c1cc(NC(=O)Cc2ccccc2)ccc1Oc1cccc(Cl)c1` [BAY-1797, N-4-(3-chlorophenoxy)-3-sulfamoylphenyl-2-phenylacetamide], in the series on human P2X4 receptor [2], the “Extent of receptor inhibition (no complete inhibition)” value is recorded as “about 80%”. Also, in [3], the Oral bioavailability result is given as “orally bioavailable”.
Consider `CC(C)c1cc(Br)c(NC(=O)Nc2cccnc2)c(Br)c1` [BX430], for which the IC50 on human P2X4 receptor [4] was 0.54 µM; on human P2X4 receptor [6], 4.5 µM. In addition, the Lipophilicity entry in series [5] is on record as “Lipophilic”. The “Potency at rat compared with human P2X4 receptors” value in the series on rat P2X4 receptors is on record as “significantly weaker”. In addition, the “Potency at mouse compared with human P2X4 receptors” value with mouse P2X4 receptors is recorded as “significantly weaker”.
